# Data from US8859625B2, “Methods to prepare penta-1,4-dien-3-ones and substituted cyclohexanones and derivatives with antitumoral and antiparasitic properties, the compounds and their uses” (Universidade Bandeirante de Sao Paulo-Academia, Paulista …, priority 2006, dated 2014).
# Marks after values point to notes of the source that are not given here.
# What was measured:
# B16F10 melanoma = test: Cell cycle phases by flow cytometry of melanoma dorsal tumors treated for 14 days; type: in vivo, C57BL/6J mice; conditions: 15 mg/kg HB-1 diluted in Miglyol 810, intraperitoneal
# Procedure: Determination of Cell Cycle Phases Through Flow Cytometry of Melanoma Dorsal Tumors Treated for 14 Days with the HB-1 Compound by the Intraperitoneal Route.
# Aliquots of the tumoral cells suspensions (10^6 cells/mL) for the control group that received Miglyol 810® vehicle and of the animals treated with the HB-1 compound for 14 days by the intraperitoneal route were immediately frozen in citrate (2 mM), sucrose (25 mM), and 0.05% dimethyl sulfoxide (DMSO) buffer, kept in liquid nitrogen up to the moment of use. After sample thawing in an ice bath, the cells were incubated with 375 μL of 0.03 g/L trypsin (Sigma) for 10 minutes, at room temperature, and neutralized with 0.5 g/L trypsin inhibitor (Sigma), 0.1 g/L ribonuclease A (Sigma), and 1.2 g/L spermine (Sigma). The samples were analysed by a flow cytometer (Becton-Dickson) and the percentage of cells was evaluated for the different phases of the cell cycle, apoptosis level (Sub-G1), and DNA content in phase S, quiescent cells (G0/G1), and cells in premytosis (G2/M).
# [1] = test system: promastigote form of Leishmania (L) amazonensis (LV79 isolate); test: Promastigote viability by the MTT method in RPMI medium; type: cell-based
# Procedure: (§1) Viability and/or cellular proliferative assays of promastigote and amastigote forms are also performed by the MTT (diphenyl tetrazolium 3-[4,5-dimethylthiazol-2il]2,5-bromide) method as described by Moreira, et al. (Moreira, M. E. C., Del Portillo, H. A., Milder, R. V., Balanco, J. M. F. and Barcinski, M. A. Heat shock induction of apoptosis in promastigotes of the unicellular organism Leishmania (Leishmania) amazonensis, J. Cell Physiol 167, 305-313, 1996), modified.
# (§2) After incubation of parasitic forms with the compounds, as described above, for predetermined periods of time for each experiment (24, 48, 72 hours, etc.), an 1.0 mL aliquot of cellular suspension is collected from each culture tube or vial and transferred to microcentrifuge tubes, where they are centrifuged at 14.000 rpm for 3 minutes, the culture medium is aspirated and discharged. To the sedimented cells are add 200 μL of PBS. After that, the volume in PBS of the cellular suspensions is splitted into two wells (duplicates of 100 μL each) of a 96 well culture plate. To each duplicate, […] of MTT (5 mg/mL stock solution, […]) are added. After 1 h or 1 h 30 min, at a temperature of 22° C. (promastigotes) or 34° C. (amastigotes), 100 μL of 10% SDS are added to each well to interrupt the reaction, to lyse the cells and to dissolve the formazan crystals, resulting in an homogeneous blue solution appropriate to the absorbance measure by a spectrophotometer for culture microplates (3550 BIORAD model, Richmond, Calif.), at 595 nm as test wavelength and 690 nm as the reference wavelength.
# (§3) The optical density (O.D.) values correspond to MTT enzymatic reduction by the metabolic active cells. Consequently, the O.D. is directly proportional to the number of viable cells of the cellular suspension. The progressive increase of O.D. indicates cellular proliferation. Results are expressed as arithmetic average of the optical density duplicates.
# Blanks of reaction are obtained by incubating of the specific medium employed in each assay, in addition to MTT, and different HB-1 concentrations. The brownish-yellow color of HB-1 exerts certain interference on the colorimetric assay at different magnitudes, according to the medium and to HB-1 concentration. In general the O.D. blank ranged among assays from 0.002 to 0.020.
# In this assay, viability of the promastigote form Leishmania is assessed by the MTT method, when incubated in RPMI medium, in the presence of HB-1 or of its respective controls in DMSO. It is also possible to verify if the effect of HB-1 could be detected in the stationary phase of the growth curve.
# For the incubations, promastigotes of the LV79 isolate, in 1st passage and in Day 7 of culture, are employed, from a 1.0×10^6/mL as initial inoculum. The final reaction volume is of 3.0 mL. The results of the viability determination for the promastigote forms of Leishmania (L) amazonensis treated with HB-1 in RPMI medium are shown in the next Table and in FIG. 35.
# [2] = test system: Leishmania (isolate L.C.L.) promastigotes; test: Promastigote viability by MTT, L.C.L. isolate, Warren medium; type: cell-based; conditions: for O.D. (optical density at 595/690 nm, average of duplicates): Warren medium
# Procedure: as §1, §2, §3
# This experiment is developed in the Warren medium using an initial inoculum of 2.0×10^6/mL of the medium for the isolates. Cultures were at the day 7^h of passage and at the final exponential phase growth (day 6 of incubation). The results of viability determination for the Leishmania (isolate L.C.L.) promastigotes, incubated in Warren medium and in the presence of HB-1, are shown in the next Table and in FIG. 36. The culture final volume is of 5 mL and the MTT reactions are processed in 1 h and 30 minutes of incubation, beginning with 1.0 mL of culture.
smiles,measurement,setting,value
"COc1cc(C=CC(=O)C=Cc2ccc(O)c(OC)c2)ccc1O [HB-1, 1,5-Bis-(4-hydroxy-3-methoxy-phenyl)-penta-1,4-dien-3-one]",tumoral cell population in the G0/G1 phase of the cell cycle,B16F10 melanoma,significantly reduces
same,Optical Density 595/690 nm (average value from duplicates),"[1]; HB-1 3.12 μg/mL, 24 hours",0.062
same,Optical Density 595/690 nm (average value from duplicates),"[1]; HB-1 3.12 μg/mL, 48 hours",0.085
same,Optical Density 595/690 nm (average value from duplicates),"[1]; HB-1 3.12 μg/mL, 72 hours",0.104*
same,Optical Density 595/690 nm (average value from duplicates),"[1]; HB-1 3.12 μg/mL, 144 hours",0.021
same,effect in words,[1]; HB-1 6.25 μg/mL,leishmaniostatic effect
same,Optical Density 595/690 nm (average value from duplicates),"[1]; HB-1 6.25 μg/mL, 24 hours",0.039
same,Optical Density 595/690 nm (average value from duplicates),"[1]; HB-1 6.25 μg/mL, 48 hours",0.033
same,Optical Density 595/690 nm (average value from duplicates),"[1]; HB-1 6.25 μg/mL, 72 hours",0.044
same,Optical Density 595/690 nm (average value from duplicates),"[1]; HB-1 6.25 μg/mL, 144 hours",0.031
same,Optical Density 595/690 nm (average value from duplicates),"[1]; HB-1 12.5 μg/mL, 24 hours",0.010
same,Optical Density 595/690 nm (average value from duplicates),"[1]; HB-1 12.5 μg/mL, 48 hours",0.004
same,Optical Density 595/690 nm (average value from duplicates),"[1]; HB-1 12.5 μg/mL, 72 hours",0.003
same,Optical Density 595/690 nm (average value from duplicates),"[1]; HB-1 12.5 μg/mL, 144 hours",0.005
same,Optical Density 595/690 nm (average value from duplicates),"[1]; HB-1 25 μg/mL, 24 hours",0.004
same,Optical Density 595/690 nm (average value from duplicates),"[1]; HB-1 25 μg/mL, 48 hours",0.005
same,Optical Density 595/690 nm (average value from duplicates),"[1]; HB-1 25 μg/mL, 72 hours",0.002
same,Optical Density 595/690 nm (average value from duplicates),"[1]; HB-1 25 μg/mL, 144 hours",0.005
same,Optical Density 595/690 nm (average value from duplicates),"[1]; HB-1 50 μg/mL, 24 hours",0.008
same,Optical Density 595/690 nm (average value from duplicates),"[1]; HB-1 50 μg/mL, 48 hours",0.004
same,Optical Density 595/690 nm (average value from duplicates),"[1]; HB-1 50 μg/mL, 72 hours",0.005
same,Optical Density 595/690 nm (average value from duplicates),"[1]; HB-1 50 μg/mL, 144 hours",0.005
same,Optical Density 595/690 nm (average value from duplicates),"[1]; HB-1 100 μg/mL, 24 hours",0.016
same,Optical Density 595/690 nm (average value from duplicates),"[1]; HB-1 100 μg/mL, 48 hours",0.012
same,Optical Density 595/690 nm (average value from duplicates),"[1]; HB-1 100 μg/mL, 72 hours",0.011
same,Optical Density 595/690 nm (average value from duplicates),"[1]; HB-1 100 μg/mL, 144 hours",0.011
same,effect in words,[1]; HB-1 above 12.5 μg/mL,clear leishmanicidal effect
same,cell viability in words,"[1]; HB-1 between 6.25 μg/mL and 100 μg/mL, since first 24 hours",irreversibly compromise cell viability
same,effect in words,[2]; HB-1 5 μg/mL,partial inhibition of proliferation
same,"O.D. (optical density at 595/690 nm, average of duplicates)","[2]; HB-1 5 μg/mL, 24 hours",0.489
same,"O.D. (optical density at 595/690 nm, average of duplicates)","[2]; HB-1 5 μg/mL, 48 hours",0.452
same,"O.D. (optical density at 595/690 nm, average of duplicates)","[2]; HB-1 5 μg/mL, 72 hours",1.346
same,"O.D. (optical density at 595/690 nm, average of duplicates)","[2]; HB-1 5 μg/mL, 96 hours",1.834
same,effect in words,[2]; HB-1 10 μg/mL,leishmaniostatic effect
same,"O.D. (optical density at 595/690 nm, average of duplicates)","[2]; HB-1 10 μg/mL, 24 hours",0.177
same,"O.D. (optical density at 595/690 nm, average of duplicates)","[2]; HB-1 10 μg/mL, 48 hours",0.153
same,"O.D. (optical density at 595/690 nm, average of duplicates)","[2]; HB-1 10 μg/mL, 72 hours",0.176
same,"O.D. (optical density at 595/690 nm, average of duplicates)","[2]; HB-1 10 μg/mL, 96 hours",0.187
same,effect in words,[2]; HB-1 20 μg/mL,leishmanicide
same,"O.D. (optical density at 595/690 nm, average of duplicates)","[2]; HB-1 20 μg/mL, 24 hours",0.056
same,"O.D. (optical density at 595/690 nm, average of duplicates)","[2]; HB-1 20 μg/mL, 48 hours",0.014
same,"O.D. (optical density at 595/690 nm, average of duplicates)","[2]; HB-1 20 μg/mL, 72 hours",0.012
same,"O.D. (optical density at 595/690 nm, average of duplicates)","[2]; HB-1 20 μg/mL, 96 hours",0.012
